What was measured:
Assay type in all cases: in vivo
tomato = experiment: Tomato petri plate assay; conditions: Solanum lycopersicum, 144 h; 10 ppm; after 6 days of continuous exposure; read-out: Percent Increase (percent change in primary tomato root length)
Protocol: For tomato, the plants were grown in disposable (150 mm) sterile plastic petri plates (Falcon, BD Biosciences, Franklin Lakes, N.J.). In the tomato assay, a single sheet of Whatman #1 filter paper was placed at the bottom of the plate, 15 tomato seeds were added, and 10 mL of treatment solution was added. At the end of 6 d, the 10 largest seedlings were selected for measurement from each plate. In each study, a minimum of 3 replicate plates were used. In tomato, several S-Benzylthiouracil compounds were tested to determine the effects on root growth.

[1] = system: Maize (cultivar; Kuromochi); experiment: Maize growth enhancement by seed treatment under low temperature stress; conditions: for Average weight of the shoots: 2.5° C. for 4 days, 18th day after seeding, control 1.50
Protocol: Maize seeds (cultivar; Kuromochi) were treated with Compound 1 at dose rates of 0.005 gram to 0.5 gram per 100 kilogram seeds. The seeds were sown into a soil pot (one seed/pot) and then cultivated in a growth chamber at a temperature of 27° C. and a day length of 16 hours for 10 days. On the 10th day after seeding, the plants were subjected to a temperature of 2.5° C. for 4 days at a day length of 16 hours. Following the stress treatment, they were cultivated for an additional 4 days in a growth chamber at a temperature of 27° C. and a day length of 16 hours. On the 18th day after seeding, the fresh shoot weight of each plant was measured for 5 replicates.

[2] = system: Maize (cultivar; Kuromochi); experiment: Maize growth promotion by seed treatment; conditions: for Percent (shoot weight, untreated control = 100) / Average weight of the shoots: 18th day after seeding; for Average weight of the shoots: control 3.8
Protocol: Maize seeds (cultivar; Kuromochi) were treated with Compound 1 at dose rates of 0.005 grams to 0.5 gram per 100 kilogram seeds. The seeds were sown into a soil pot (one seed/pot) and then cultivated in a growth chamber at a temperature of 27° C. and a day length of 16 hours for 18 days. On the 18th day after seeding, the fresh shoot weight of each plant was examined for 3 replicates.

Wheat (cultivar; Apogee) = experiment: Wheat yield enhancement by foliar spray treatment under high temperature stress; conditions: for Average fresh weight of young ears: 36° C./32° C. for 7 days, 56th day after seeding, control 1.68
Protocol: Wheat (cultivar; Apogee) was sown in soil pots (5 seeds/pot) and then cultivated in a growth chamber at a temperature of 18° C. (day)/15° C. (night) and at a day length of 12 hours for 28 days. Plants were thinned to 3 plants/pot. On the 28th day after sowing, the plants were treated by foliar spray application with a solution containing the test compound. On the 2nd day after the spray application the plants were subjected to high temperatures for 7 days in a growth chamber 36° C. (day)/32° C. (night) and a day length of 12 hours. After the stress treatment, the plants were cultivated in a growth chamber at a temperature of 18° C. (day)/15° C. (night) and a day length of 12 hours. On the 56th day after seeding, the total fresh weight of the young ears from the 3 plants in each pot was measured (n=8 replicates).
Wheat seeds (cultivar; Apogee) were sown in soil pots (5 seeds/pot) and then cultivated in a growth chamber at a temperature of 18° C. (day)/15° C. (night) and at a day length of 12 hours for 28 days. The wheat plants on the 28th day after seeding were treated by foliar spray application with a solution containing the Compound 1 at concentrations of 1 ppm to 100 ppm. As an untreated control group, the plants were treated with blank solution without Compound 1. Three seedlings per pot were used for the test. On the 2nd day after the spray application, the plants were treated with high temperature for 7 days in a growth chamber at a temperature of 36° C. (day)/32° C. (night) and a day length of 12 hours. After the stress treatment, the plants were cultivated in a growth chamber at a temperature of 18° C. (day)/15° C. (night) and a day length of 12 hours. On the 56th day after seeding, total fresh weight of young seed heads from 3 plants in each pot were measured for 8 replicates of each treatment.

mungbean = experiment: Mungbean pouch assay: growth of primary root and shoot; conditions: for Shoot Length / Root Length: 4 days after sowing in growth pouches; for Shoot Length: control 4.8; for Root Length: control 8.8
Protocol: Seeds were placed in germination pouches consisting of germination paper as an insert in a gas-permeable 16×14 cm plastic pouch (CYG Pouch; Mega International, St. Paul, Minn.). In pouch solution evaluation, S-Benzylthiouracil compounds or their salts were dissolved in a small volume of DMSO and added to sterile water with a maximum of 0.5% v/v DMSO at final dilution. The S-Benzylthiouracil solution was subsequently pipetted into the growth pouch, followed by the addition of seeds of the crop being tested. The pouches were arranged in a randomized complete block design in growth racks and placed in 19-liter polycarbonate food storage containers (Rubbermaid Commercial Products, Winchester, Va.). The sealed containers were held in an upright growth cabinet maintained at 25 C with a 12 hour light: 12 hour dark photoperiod. For rice, plants were harvested at 6 d, while in mungbean and corn, the plants were harvested at 4 d post sowing. Measurements were performed on the primary root and shoot of each seedling. The growth of the primary root of mungbean was examined in the pouch assay system. The results of the testing, presented as percent change in root length across all the free S-Benzylthiouracil compounds is shown below. The following S-Benzylthiouracil compounds have benzyl substitutions as defined in Table 11 below.

[3] = seed treatment 0.005 grams/100-kg seeds
[4] = seed treatment 0.05 grams/100-kg seeds
[5] = seed treatment 0.5 grams/100-kg seeds

SMILES: Oc1ccnc(SCc2cccc(F)c2)n1 [Compound 1, S-(3-Fluorobenzyl)-2-thiouracil]
- change in vivo at 10 ppm (tomato): 8.3%
- Average weight of the shoots ([1]; 0.005 grams/100-kg seeds): 1.78 gram/plant
- Percent (shoot weight, untreated control = 100) ([1]; 0.005 grams/100-kg seeds, low temperature stress): 119%
- Average weight of the shoots ([1]; 0.05 grams/100-kg seeds): 2.06 gram/plant
- Percent (shoot weight, untreated control = 100) ([1]; 0.05 grams/100-kg seeds, low temperature stress): 138%
- Average weight of the shoots ([1]; 0.5 grams/100-kg seeds): 1.85 gram/plant
- Percent (shoot weight, untreated control = 100) ([1]; 0.5 grams/100-kg seeds, low temperature stress): 124%
- Average fresh shoot weight versus untreated control, in words ([1]; across 0.005 to 0.5 gram per 100 kilogram seeds, low temperature stress): larger than that of the untreated control
- Average fresh shoot weight versus untreated control, in words ([2]; across 0.005 to 0.5 gram per 100 kilogram seeds): larger than that of the untreated control group
- Percent (shoot weight, untreated control = 100) [2, 3]: 104%
- Average weight of the shoots [2, 3]: 4.0 grams/plant
- Percent (shoot weight, untreated control = 100) [2, 4]: 133%
- Average weight of the shoots [2, 4]: 5.1 grams/plant
- Percent (shoot weight, untreated control = 100) [2, 5]: 115%
- Average weight of the shoots [2, 5]: 4.4 grams/plant
- Average fresh weight of young seed heads versus untreated controls, in words (Wheat (cultivar; Apogee); 1 ppm to 100 ppm foliar spray, high temperature stress): larger than those of the untreated controls
- Average fresh weight of young ears (Wheat (cultivar; Apogee); foliar spray 1 ppm): 1.71 grams/3 plants
- Percent (untreated control = 100) (Wheat (cultivar; Apogee); foliar spray 1 ppm, high temperature stress): 105%
- Average fresh weight of young ears (Wheat (cultivar; Apogee); foliar spray 10 ppm): 1.70 grams/3 plants
- Percent (untreated control = 100) (Wheat (cultivar; Apogee); foliar spray 10 ppm, high temperature stress): 104%
- Average fresh weight of young ears (Wheat (cultivar; Apogee); foliar spray 100 ppm): 1.87 grams/3 plants
- Percent (untreated control = 100) (Wheat (cultivar; Apogee); foliar spray 100 ppm, high temperature stress): 115%
- Shoot Length (mungbean; 1 ppm): 5.5 cm
- Root Length (mungbean; 1 ppm): 9.9 cm
- Percent Change in Primary Root Length of Mungbean (mungbean; 10 ppm (10 mg/L), benzyl ring substitutions): 10.4%
- Shoot Length (mungbean; 10 ppm): 5.2 cm
- Root Length (mungbean; 10 ppm): 10.6 cm
- Shoot Length (mungbean; 25 ppm): 4.7 cm
- Root Length (mungbean; 25 ppm): 9.5 cm
- Shoot Length (mungbean; 50 ppm): 3.9 cm
- Root Length (mungbean; 50 ppm): 5.8 cm
- change in vivo at 10 ppm (mungbean; 96 h, 10 ppm (10 mg/L), benzyl ring substitutions, read-out: Percent Change in Primary Root Length of Mungbean): 10.4%
- Effect on mungbean root (and shoot) growth, in words (mungbean; mungbean pouch assay): only a moderate increase in root growth

From patent US9510593B2, “S-benzylthiouracil compounds and methods of enhancing plant root growth” (Valent BioSciences Corporation, priority 2014, dated 2016)
